Laboratory results as given in patent US20250121013A1, “USE OF BACILLUS AMYLOLIQUEFACIENS FOR PREVENTING AND TREATING PARKINSON'S DISEASE” (Artugen Therapeutics Ltd., priority 2021, published 2025).
In brackets after ≈: the same amount, converted by molar mass.

What was measured:
[1] = tested on: ART24; assay: Antibiotic susceptibility of ART24, MIC, VetMIC panels (Table 2); type: cell-based, Bacillus amyloliquefaciens; conditions: for MIC: Bacillus amyloliquefaciens, read-out: ART24 MIC
Experimental: The minimum inhibitory concentration (MIC) of the listed antimicrobials is expressed as μg/mL. […] The wells of the prefabricated 96-well plates were filled with 100 μL of the final suspension. The plates were sealed with an […], Sigma Aldrich) sealing film (to facilitate growth of the aerobic Bacillus. The plates were then incubated for 24 hr at 37° C. The results are recorded after 24 hours as the lowest concentration of the antibiotic to inhibit visible growth. The prefabricated panels […], Uppsala, Sweden) comprising the antibiotics ampicillin, vancomycin, gentamicin, kanamycin, streptomycin, erythromycin, clindamycin, tetracycline, chloramphenicol, neomycin, penicillin, quinupristin-dalfopristin, linezolid, trimethoprim, ciprofloxacin and rifampicin were used.

[2] = tested on: ART24; assay: Antibiotic susceptibility of ART24 lots and cell banks, MIC following EFSA testing recommendations (Table 3); type: cell-based, Bacillus amyloliquefaciens; conditions: for MIC: Bacillus amyloliquefaciens
Experimental: The minimum inhibitory concentration (MIC) of the listed antimicrobials is expressed as μg/mL. Additional studies following EFSA testing recommendations were performed on lyophilized ART24 lots CO-33-10A2 and CO-33-12A2 and Research and Master Cell Banks CO-33-ART24 BHI and CO-33-ART24 SYD, and those results are shown in Table 3.

[3] = 24 hr at 37° C., average results from N = 6
[4] = ART24 source: cell bank CO-33 ART 24 BHI
[5] = ART24 source: cell bank CO-33 ART 024 SYD
[6] = ART24 source: lyophilized lot CO-33-10A2
[7] = ART24 source: lyophilized lot CO-33-12A2
[8] = ART24 source: cell bank CO-33 ART 24 BHI, read-out: MIC, CO-33 ART 24 BHI
[9] = ART24 source: cell bank CO-33 ART 024 SYD, read-out: MIC, CO-33 ART 024 SYD
[10] = ART24 source: lyophilized lot CO-33-10A2, read-out: MIC, CO-33-10A2
[11] = ART24 source: lyophilized lot CO-33-12A2, read-out: MIC, CO-33-12A2

| Molecule | MIC [1, 3] [µg/mL] | MIC interpretation, CO-33 ART 24 BHI [2, 4] | MIC interpretation, CO-33 ART 024 SYD [2, 5] | MIC interpretation, CO-33-10A2 [2, 6] | MIC interpretation, CO-33-12A2 [2, 7] | MIC [2, 8] [µg/mL] | MIC [2, 9] [µg/mL] | MIC [2, 10] [µg/mL] | MIC [2, 11] [µg/mL] | also measured |
| --- | --- | --- | --- | --- | --- | --- | --- | --- | --- | --- |
| CC[C@H]1OC(=O)[C@H](C)[C@@H](O[C@H]2C[C@@](C)(OC)[C@@H](O)[C@H](C)O2)[C@H](C)[C@@H](O[C@@H]2O[C@H](C)C[C@H](N(C)C)[C@H]2O)[C@](C)(O)C[C@@H](C)C(=O)[C@H](C)[C@@H](O)[C@]1(C)O [Erythromycin] | 0.12 (≈ 0.164 µM) | S | S | S | S | 0.12 (≈ 0.164 µM) | 0.12 (≈ 0.164 µM) | 0.06 (≈ 0.0818 µM) | 0.06 (≈ 0.0818 µM) | – |
| Penicillin | – | S | S | S | S | – | – | – | – | ART24 MIC [1, 3]: 0.12 to 0.5 µg/mL; MIC, CO-33 ART 24 BHI [2, 4]: ≤ 0.03 µg/mL; MIC, CO-33 ART 024 SYD [2, 5]: 0.06 µg/mL; MIC, CO-33-10A2 [2, 6]: ≤ 0.03 µg/mL; MIC, CO-33-12A2 [2, 7]: ≤ 0.03 µg/mL |
| CC1(C)S[C@@H]2[C@H](NC(=O)[C@H](N)c3ccccc3)C(=O)N2[C@H]1C(=O)O [Ampicillin] | 0.25 (≈ 0.715 µM) | S | S | S | S | ≤ 0.03 | ≤ 0.03 | ≤ 0.03 | ≤ 0.03 | – |
| Gentamicin | – | S | S | S | S | – | – | – | – | ART24 MIC [1, 3]: ≤0.5 µg/mL; MIC, CO-33 ART 24 BHI [2, 4]: ≤ 0.06 µg/mL; MIC, CO-33 ART 024 SYD [2, 5]: ≤ 0.06 µg/mL; MIC, CO-33-10A2 [2, 6]: ≤ 0.06 µg/mL; MIC, CO-33-12A2 [2, 7]: ≤ 0.06 µg/mL |
| NC[C@H]1O[C@H](O[C@H]2[C@H](O)[C@@H](O[C@H]3O[C@H](CO)[C@@H](O)[C@H](N)[C@H]3O)[C@H](N)C[C@@H]2N)[C@H](O)[C@@H](O)[C@@H]1O [Kanamycin] | ≤ 2 | S | S | S | S | ≤ 0.5 | ≤ 0.5 | ≤ 0.5 | ≤ 0.5 | – |
| O=C(N[C@H](CO)[C@H](O)c1ccc([N+](=O)[O-])cc1)C(Cl)Cl [Chloramphenicol] | 4 (≈ 12.4 µM) | S | S | S | S | 2 (≈ 6.19 µM) | 2 (≈ 6.19 µM) | 2 (≈ 6.19 µM) | 2 (≈ 6.19 µM) | – |
| Neomycin | – | – | – | – | – | – | – | – | – | ART24 MIC [1, 3]: ≤0.5 µg/mL; MIC, CO-33 ART 24 BHI [2, 4]: ≤0.12 µg/mL; MIC, CO-33 ART 024 SYD [2, 5]: ≤0.12 µg/mL; MIC, CO-33-10A2 [2, 6]: ≤0.12 µg/mL; MIC, CO-33-12A2 [2, 7]: ≤0.12 µg/mL |
| COc1cc(Cc2cnc(N)nc2N)cc(OC)c1OC [Trimethoprim] | ≤ 0.12 | – | – | – | – | ≤ 0.25 | ≤ 0.25 | ≤ 0.25 | ≤ 0.25 | – |
| CN[C@H](CC(C)C)C(=O)N[C@H]1C(=O)N[C@@H](CC(N)=O)C(=O)N[C@H]2C(=O)N[C@H]3C(=O)N[C@H](C(=O)N[C@H](C(=O)O)c4cc(O)cc(O)c4-c4cc3ccc4O)[C@H](O)c3ccc(c(Cl)c3)Oc3cc2cc(c3O[C@@H]2O[C@H](CO)[C@@H](O)[C@H](O)[C@H]2O[C@H]2C[C@](C)(N)[C@H](O)[C@H](C)O2)Oc2ccc(cc2Cl)[C@H]1O [Vancomycin] | – | S | S | S | S | – | – | – | – | MIC ([1]; 24 h): 0.5 to 1 µg/mL (≈ 0.345 to 0.69 µM); MIC ([2]; read-out: MIC, CO-33-10A2): ≤ 0.25 µg/mL; MIC ([2]; read-out: MIC, CO-33-12A2): ≤ 0.25 µg/mL; MIC ([2]; read-out: MIC, CO-33 ART 24 BHI): 0.5 µg/mL (≈ 0.345 µM); MIC ([2]; read-out: MIC, CO-33 ART 024 SYD): ≤ 0.25 µg/mL |
| CCC[C@@H]1C[C@@H](C(=O)N[C@@H]([C@H]2O[C@H](SC)[C@H](O)[C@@H](O)[C@H]2O)[C@H](C)Cl)N(C)C1 [Clindamycin] | 0.5 to 1 (≈ 1.18 to 2.35 µM) | S | S | S | S | 0.25 (≈ 0.588 µM) | 0.25 (≈ 0.588 µM) | 0.12 (≈ 0.282 µM) | 0.25 (≈ 0.588 µM) | – |
| CC(=O)NC[C@H]1CN(c2ccc(N3CCOCC3)c(F)c2)C(=O)O1 [Linezolid] | 0.5 (≈ 1.48 µM) | – | – | – | – | 0.5 (≈ 1.48 µM) | 0.5 (≈ 1.48 µM) | 0.25 (≈ 0.741 µM) | 0.5 (≈ 1.48 µM) | – |
| CCc1c(Cl)c(O)c(Cl)c(O)c1C(=O)O[C@H]1[C@H](O)[C@H](OC)[C@H](OC/C2=C\C=C\C[C@H](O)/C(C)=C/[C@H](CC)[C@@H](O[C@@H]3OC(C)(C)[C@@H](OC(=O)C(C)C)[C@H](O)[C@@H]3O)/C(C)=C/C(C)=C/C[C@@H]([C@@H](C)O)OC2=O)O[C@@H]1C [Fidaxomicin] | – | – | – | – | – | 4 (≈ 3.78 µM) | 4 (≈ 3.78 µM) | 2 (≈ 1.89 µM) | 4 (≈ 3.78 µM) | – |
| Cc1ncc([N+](=O)[O-])n1CCO [Metronidazole] | – | – | – | – | – | – | – | – | – | MIC ([2]; aerobic, ART24 source CO-33-10A2, read-out: MIC, CO-33-10A2 (aerobic)): > 64 µg/mL; MIC ([2]; aerobic, ART24 source CO-33-12A2, read-out: MIC, CO-33-12A2 (aerobic)): > 64 µg/mL; MIC ([2]; aerobic, ART24 source CO-33 ART 24 BHI, read-out: MIC, CO-33 ART 24 BHI (aerobic)): > 64 µg/mL; MIC ([2]; aerobic, ART24 source CO-33 ART 024 SYD, read-out: MIC, CO-33 ART 024 SYD (aerobic)): > 64 µg/mL; MIC ([2]; anaerobic, ART24 source CO-33-10A2, read-out: MIC, CO-33-10A2 (anaerobic)): 64 µg/mL (≈ 374 µM); MIC ([2]; anaerobic, ART24 source CO-33-12A2, read-out: MIC, CO-33-12A2 (anaerobic)): 64 µg/mL (≈ 374 µM); MIC ([2]; anaerobic, ART24 source CO-33 ART 24 BHI, read-out: MIC, CO-33 ART 24 BHI (anaerobic)): 64 µg/mL (≈ 374 µM); MIC ([2]; anaerobic, ART24 source CO-33 ART 024 SYD, read-out: MIC, CO-33 ART 024 SYD (anaerobic)): 64 µg/mL (≈ 374 µM) |
| [H]/N=C(/N)N[C@H]1[C@H](O)[C@@H](O)[C@H](O[C@@H]2O[C@@H](C)[C@](O)(C=O)[C@H]2O[C@@H]2O[C@@H](CO)[C@H](O)[C@@H](O)[C@@H]2NC)[C@@H](N/C(N)=N\[H])[C@@H]1O [Streptomycin] | 4 (≈ 6.88 µM) | S | S | S | S | 1 (≈ 1.72 µM) | 2 (≈ 3.44 µM) | 1 (≈ 1.72 µM) | 1 (≈ 1.72 µM) | – |
| CN(C)[C@@H]1C(O)=C(C(N)=O)C(=O)[C@@]2(O)C(O)=C3C(=O)c4c(O)cccc4[C@@](C)(O)[C@H]3C[C@@H]12 [Tetracycline] | 4 (≈ 9 µM) | S | S | S | S | 2 (≈ 4.5 µM) | 2 (≈ 4.5 µM) | 2 (≈ 4.5 µM) | 2 (≈ 4.5 µM) | – |
